Results: patent EP0294538B1, “Use of nigericin for the production of a medicament for the treatment of viral diseases” (S O "PHARMACHIM", priority 1987, dated 1988)

Columns and labels:
[1] = tested on: Virus-Erkrankungen des Auges; assay: Clinical study of different treatments of viral diseases of the eye (Table 1); assay type: in vivo, Patienten
Text: Ergebnisse der klinischen Untersuchungen von Nigerizin (s. Tabelle 1).
Das Nigerizin enthaltende Arzneimittel in Form von Tropfen, Salbe und Suppositorien wurde an insgesamt 711 Patienten mit verschiedenen Virus-Erkrankungen: Labial-, Fazial-, Genital- und Gluteal- oder Femoralherpes, Herpes und Adenovirus-Keratitis und Konjunktivitis, Vaginitis, Endocervicitis und Exocervicitis mit Herpes-Ethiologie, Herpes Zoster der Augen und Haut angewendet.
Nigerizin-Tropfen wurden an 112 Patienten in drei Augenkliniken des Medizinischen Akademie-Forschungsinstitutes für Augenkrankheiten, Lehrstuhl für Ophthalmologie an den Hochschulen für Medizin in Varna und in Pleven verabreicht.

[2] = tested on: Herpes-Erkrankungen; assay: Efficacy of nigericin ointment depending on the start of treatment (Table 4); assay type: in vivo, Patienten; details: treatment begun on the first day; analysis of 88 patients
Text: Es wurde die Abhängigkeit zwischen der Wirksamkeit der Behandlung mit Nigerizin-Salbe und dem Beginn der Behandlung untersucht (siehe Tabelle 4). TABELLE 4
Bei 140 mit Nigerizin-Salbe behandelten Patienten wurde eine Wirksamkeit von 90% erreicht, verglichen mit weniger als 20% für die mit Placebo behandelten Kontrollgruppe. Die eingehende Analyse der Ergebnisse an 88 Patienten zeigt, daß es sehr wichtig ist, bei Nigerizin früh mit der Behandlung zu beginnen, wobei am ersten Tag die Wirksamkeit bis zu 100% beträgt. Bei den Patienten, die mit einer Placebo-Salbe behandelt wurden, wird die Wirksamkeit nicht durch die Phase der Erkrankung beeinflußt, was ihren nicht spezifischen Charakter beweist.

[3] = tested on: Auge eines Kaninchens; assay type: in vivo, Kaninchen; details: topical; doses 20 times the therapeutic concentrations; 10 days
[4] = Acute toxicity by injection (LD50); parameters: species or system weißen Ratten und Mäusen; details: in vivo, white rats and mice, read-out: akute Toxizität (=LD₅₀)
Protocol: (§1) Bei Spritzenbehandlung: Die akute Toxizität bei weißen Ratten und Mäusen (=LD₅₀) liegt im Bereich von 55 bis 66 mg/kg. Die chronische sechsmonatige Toxizität in Dosen bis 1/10 der LD₅₀ beträgt bis zu 5,6 mg/kg. […] Die pharmakologische Untersuchung zeigte gute Toleranz bei verschiedenen Tieren bei Konzentrationen bis zu 1/10 der LD₅₀.

[5] = tested on: Ratten; assay: Chronic six-month toxicity by injection; assay type: in vivo; details: six months, doses up to 1/10 of LD₅₀ (up to 5,6 mg/kg), blood, coagulation, blood and urine biochemistry, liver, histology, general state, weight, behaviour
Protocol: as §1

[6] = tested on: trächtigen weißen Ratten; assay: Embryotoxicity and teratogenicity by injection; assay type: in vivo; details: doses up to 5,6 mg/kg, pregnant white rats
Protocol: as §1

[7] = tested on: verschiedenen Tieren; assay: Pharmacological tolerance study; assay type: in vivo; details: various animals; up to 1/10 of LD₅₀
Protocol: as §1

[8] = tested on: zentralen Nervensystem; assay: Safety pharmacology: central nervous system; details: in vivo
Protocol: as §1

[9] = tested on: Herz-Blutgefäß-System von Katzen; assay: Safety pharmacology: cardiovascular system (blood pressure, electrocardiogram); assay type: in vivo; details: cats; blood pressure and electrocardiograms
Protocol: as §1

[10] = tested on: Glattmuskulatur des Magen-Darm-Wegs; assay: Safety pharmacology: smooth muscle of the gastrointestinal tract; assay type: in vivo, Ratten und Kaninchen; details: rats and rabbits
Protocol: as §1

[11] = Mutagenicity
Protocol: as §1

[12] = Adenovirus-Keratokonjunktivitis

| Structure (SMILES) | Dauer der Behandlung (Tage) [1, 12] | Prozent der günstigen Beeinflußung [1, 12] [Prozent] | Dauer der Behandlung (Tage) ([1]; Oberflächen-Herpeskeratitis) | Prozent der günstigen Beeinflußung ([1]; Oberflächen-Herpeskeratitis) [Prozent] | Dauer der Behandlung (Tage) ([1]; Tiefe/Ulzerose/ Keratitis) | Prozent der günstigen Beeinflußung ([1]; Tiefe/Ulzerose/ Keratitis) [Prozent] | Durchschnittsaufenthalt im Krankenhaus (Tage) ([1]; all clinical forms of the treatment group) | Dauer der Behandlung ([1]; compared with Idoxyridin, immune and physico-chemical means) | Wirksamkeit [2] [%] | toxische Wirkung am Auge [3] | LD50 [4] [mg/kg] | chronische sechsmonatige Toxizität: Abweichungen der behandelten Ratten [5] | embryotoxische und terratogene Wirkung [6] | Toleranz [7] | Veränderungen im zentralen Nervensystem [8] | Wirkung auf das Herz-Blutgefäß-System [9] | Funktionen der Glattmuskulatur des Magen-Darm-Wegs [10] | Mutagenität [11] |
| --- | --- | --- | --- | --- | --- | --- | --- | --- | --- | --- | --- | --- | --- | --- | --- | --- | --- | --- |
| O=c1[nH]c(=O)n([C@H]2C[C@H](O)[C@@H](CO)O2)cc1I [Idoxyridin, 2'-desoxy-5-iodo-uridin] | 9,3 Tage | 41 | 17,9 Tage | 82 | 25,2 Tage | 51 | 23,6 Tage | – | – | – | – | – | – | – | – | – | – | – |
| COC1CC(CC2CCC(C)C(C(C)C(=O)O)O2)OC2(OC(C)(C3CCC(C)(C4OC(C5OC(O)(CO)C(C)CC5C)CC4C)O3)CC2C)C1C (stereo not drawn) [Nigerizin] | – | – | – | – | – | – | – | um mehr als zweimal verringert | ≤ 100 | keine toxische Wirkung | 55 to 66 | keine Abweichungen | keine embryotoxische und terratogene Wirkung | gute Toleranz | keine Veränderungen | keine Wirkung | ändert nicht | keine Mutagenität |
